Each structure is given as a SMILES string.

On to `O=C(CCc1oc(-n2cnc3ccccc32)nc1-c1ccc(Cl)cc1)NCc1ccc(-c2csnn2)cc1` [Example 150, 3-[2-(1H-benzimidazol-1-yl)-4-(4-chlorophenyl)-5-oxazolyl]-N-[4-(1,2,3-thiadiazol-4-yl)benzyl]propionamide], for which the melting point (usually the temperature, or range, at which the solid turns liquid) lay in the range of 173 to 174 °C.

For the molecule `NS(=O)(=O)c1ccc(CNC(=O)CCc2oc(-n3cnc4ccccc43)nc2-c2ccc(Cl)cc2)cc1` [Example 151, N-[4-(aminosulfonyl)benzyl]-3-[2-(1H-benzimidazol-1-yl)-4-(4-chlorophenyl)-5-oxazolyl]propionamide], the melting point is 255 to 256 °C.

On to `O=C(CCc1oc(-n2cnc3ccccc32)nc1-c1ccc(Cl)cc1)NCc1ccc(Cl)cc1` [Example 152, 3-[2-(1H-benzimidazol-1-yl)-4-(4-chlorophenyl)-5-oxazolyl]-N-(4-chlorobenzyl)propionamide], for which the melting point was in the range of 190 to 191 °C.

In turn, `O=C(CCc1oc(-n2cnc3ccccc32)nc1-c1ccc(Cl)cc1)NCc1ccc(-c2ccccc2)cc1` [Example 153, 3-[2-(1H-benzimidazol-1-yl)-4-(4-chlorophenyl)-5-oxazolyl]-N-(4-phenylbenzyl)propionamide] displayed a melting point of 214 to 216 °C.

Take `O=C(CCc1oc(-n2cnc3ccccc32)nc1-c1ccc(Cl)cc1)NCc1ccccn1` [Example 154, 3-[2-(1H-benzimidazol-1-yl)-4-(4-chlorophenyl)-5-oxazolyl]-N-(2-pyridinylmethyl)propionamide]: the melting point lay within 157 to 158 °C.

`O=C(CCc1oc(-n2cnc3ccccc32)nc1-c1ccc(Cl)cc1)NCc1ccncc1` [Example 155, 3-[2-(1H-benzimidazol-1-yl)-4-(4-chlorophenyl)-5-oxazolyl]-N-(4-pyridinylmethyl)propionamide] displayed a melting point of 214 to 216 °C.

`O=C(CCc1oc(-n2cnc3ccccc32)nc1-c1ccc(Cl)cc1)NCc1c(F)cccc1F` [Example 156, 3-[2-(1H-benzimidazol-1-yl)-4-(4-chlorophenyl)-5-oxazolyl]-N-(2,6-difluorobenzyl)propionamide]: the melting point lay in the range of 225 to 226 °C.

With `O=C(CCc1oc(-n2cnc3ccccc32)nc1-c1ccc(Cl)cc1)NCc1ccccc1C(F)(F)F` [Example 157, 3-[2-(1H-benzimidazol-1-yl)-4-(4-chlorophenyl)-5-oxazolyl]-N-[2-(trifluoromethyl)benzyl]propionamide], the melting point was in the range of 208 to 209 °C.

Turning to `O=C(CCc1oc(-n2cnc3ccccc32)nc1-c1ccc(Cl)cc1)NCc1cc(F)ccc1F` [Example 158, 3-[2-(1H-benzimidazol-1-yl)-4-(4-chlorophenyl)-5-oxazolyl]-N-(2,5-difluorobenzyl)propionamide], the melting point was in the range of 197 to 198 °C.

`O=C(CCc1oc(-n2cnc3ccccc32)nc1-c1ccc(Cl)cc1)NCc1ccc(Cl)cc1F` [Example 159, 3-[2-(1H-benzimidazol-1-yl)-4-(4-chlorophenyl)-5-oxazolyl]-N-(4-chloro-2-fluorobenzyl)propionamide] gave a melting point of 189 to 191 °C.

Molecule `O=C(CCc1oc(-n2cnc3ccccc32)nc1-c1ccc(Cl)cc1)NCc1ccc(F)cc1F` [Example 160, 3-[2-(1H-benzimidazol-1-yl)-4-(4-chlorophenyl)-5-oxazolyl]-N-(2,4-difluorobenzyl)propionamide] returned a melting point of 190 to 191 °C.

With `COc1cc(OC)c(CNC(=O)CCc2oc(-n3cnc4ccccc43)nc2-c2ccc(Cl)cc2)c(OC)c1` [Example 161, 3-[2-(1H-benzimidazol-1-yl)-4-(4-chlorophenyl)-5-oxazolyl]-N-(2,4,6-trimethoxybenzyl)propionamide], the melting point lay within 206 to 208 °C.

`O=C(CCc1oc(-n2cnc3ccccc32)nc1-c1ccc(Cl)cc1)NCCOc1ccccc1` [Example 162, 3-[2-(1H-benzimidazol-1-yl)-4-(4-chlorophenyl)-5-oxazolyl]-N-(2-phenoxyethyl)propionamide] yielded a melting point of 156 to 157 °C.

In the case of `O=C(CCc1oc(-n2cnc3ccccc32)nc1-c1ccc(Cl)cc1)NCc1cc(F)cc(C(F)(F)F)c1` [Example 163, 3-[2-(1H-benzimidazol-1-yl)-4-(4-chlorophenyl)-5-oxazolyl]-N-[3-fluoro-5-(trifluoromethyl)benzyl]propionamide], the melting point fell in the range of 198 to 200 °C.

Consider `O=C(CCc1oc(-n2cnc3ccccc32)nc1-c1ccc(Cl)cc1)NCc1cc(F)cc(F)c1` [Example 164, 3-[2-(1H-benzimidazol-1-yl)-4-(4-chlorophenyl)-5-oxazolyl]-N-(3,5-difluorobenzyl)propionamide], for which the melting point is 155 to 156 °C.

`NS(=O)(=O)c1ccc(CNC(=O)CCc2oc(-c3ccccc3)nc2-c2ccc(Cl)cc2)cc1` [Example 165, N-[4-(aminosulfonyl)benzyl]-3-[4-(4-chlorophenyl)-2-phenyl-5-oxazolyl]propionamide] gave a melting point of 225 to 227 °C.

With `Cc1ccc(CNC(=O)CCc2oc(-c3ccccc3)nc2-c2ccc(Cl)cc2)cc1` [Example 166, 3-[4-(4-chlorophenyl)-2-phenyl-5-oxazolyl]-N-(4-methylbenzyl)propionamide], the melting point lay in the range of 193 to 194 °C.

`O=C(CCc1oc(-n2cnc3ccccc32)nc1-c1ccc(Cl)cc1)NCc1cc(Br)ccc1F` [Example 167, 3-[2-(1H-benzimidazol-1-yl)-4-(4-chlorophenyl)-5-oxazolyl]-N-(5-bromo-2-fluorobenzyl)propionamide] gave a melting point of 183 to 184 °C.

As for `O=C(CCc1oc(-n2cnc3ccccc32)nc1-c1ccc(Cl)cc1)NCc1ccc(F)cc1Cl` [Example 168, 3-[2-(1H-benzimidazol-1-yl)-4-(4-chlorophenyl)-5-oxazolyl]-N-(2-chloro-4-fluorobenzyl)propionamide], the melting point is 196 to 198 °C.

For `COc1cc(CNC(=O)CCc2oc(-n3cnc4ccccc43)nc2-c2ccc(Cl)cc2)cc(OC)c1OC` [Example 169, 3-[2-(1H-benzimidazol-1-yl)-4-(4-chlorophenyl)-5-oxazolyl]-N-(3,4,5-trimethoxybenzyl)propionamide], the melting point was in the range of 169 to 170 °C.

`O=C(CCc1oc(-n2cnc3ccccc32)nc1-c1ccc(Cl)cc1)NCc1ccc(F)c(Br)c1` [Example 170, 3-[2-(1H-benzimidazol-1-yl)-4-(4-chlorophenyl)-5-oxazolyl]-N-(3-bromo-4-fluorobenzyl)propionamide]: the melting point lay in the range of 206 to 207 °C.

Regarding `O=C(CCc1oc(-n2cnc3ccccc32)nc1-c1ccc(Cl)cc1)NCc1cccc(Br)c1` [Example 171, 3-[2-(1H-benzimidazol-1-yl)-4-(4-chlorophenyl)-5-oxazolyl]-N-(3-bromobenzyl)propionamide], the melting point is 181 to 183 °C.

As to `O=C(CCc1oc(-n2cnc3ccccc32)nc1-c1ccc(Cl)cc1)NCc1ccc(Br)cc1` [Example 172, 3-[2-(1H-benzimidazol-1-yl)-4-(4-chlorophenyl)-5-oxazolyl]-N-(4-bromobenzyl)propionamide], the melting point lay in the range of 205 to 206 °C.

In turn, `O=C(CCc1oc(-n2cnc3ccccc32)nc1-c1ccc(Cl)cc1)NCc1ccc(F)c(Cl)c1` [Example 173, 3-[2-(1H-benzimidazol-1-yl)-4-(4-chlorophenyl)-5-oxazolyl]-N-(3-chloro-4-fluorobenzyl)propionamide] yielded a melting point of 188 to 189 °C.

Regarding `O=C(CCc1oc(-n2cnc3ccccc32)nc1-c1ccc(Cl)cc1)NCc1cc(Cl)ccc1Cl` [Example 174, 3-[2-(1H-benzimidazol-1-yl)-4-(4-chlorophenyl)-5-oxazolyl]-N-(2,5-dichlorobenzyl)propionamide], the melting point is 205 to 207 °C.

For `Cc1ccc(CNC(=O)CCc2oc(-n3cnc4ccccc43)nc2-c2ccc(Cl)cc2)c(C)c1` [Example 175, 3-[2-(1H-benzimidazol-1-yl)-4-(4-chlorophenyl)-5-oxazolyl]-N-(2,4-dimethylbenzyl)propionamide], the melting point is 218 to 219 °C.

`Cc1ccc(Cl)cc1CNC(=O)CCc1oc(-n2cnc3ccccc32)nc1-c1ccc(Cl)cc1` [Example 176, 3-[2-(1H-benzimidazol-1-yl)-4-(4-chlorophenyl)-5-oxazolyl]-N-(5-chloro-2-methylbenzyl)propionamide] came in with a melting point of 217 to 219 °C.

`O=C(CCc1oc(-n2cnc3ccccc32)nc1-c1ccc(Cl)cc1)NCc1cccc(-c2ccccc2)c1` [Example 177, 3-[2-(1H-benzimidazol-1-yl)-4-(4-chlorophenyl)-5-oxazolyl]-N-(3-phenylbenzyl)propionamide] returned a melting point of 201 to 202 °C.

On to `Cc1cc(Cl)ccc1CNC(=O)CCc1oc(-n2cnc3ccccc32)nc1-c1ccc(Cl)cc1` [Example 178, 3-[2-(1H-benzimidazol-1-yl)-4-(4-chlorophenyl)-5-oxazolyl]-N-(4-chloro-2-methylbenzyl)propionamide], for which the melting point fell in the range of 200 to 201 °C.

Consider `COc1ccc(OC)c(CNC(=O)CCc2oc(-n3cnc4ccccc43)nc2-c2ccc(Cl)cc2)c1` [Example 179, 3-[2-(1H-benzimidazol-1-yl)-4-(4-chlorophenyl)-5-oxazolyl]-N-(2,5-dimethoxybenzyl)propionamide], for which the melting point lay within 193 to 194 °C.

Molecule `COc1cc(CNC(=O)CCc2oc(-n3cnc4ccccc43)nc2-c2ccc(Cl)cc2)cc(OC)c1` [Example 180, 3-[2-(1H-benzimidazol-1-yl)-4-(4-chlorophenyl)-5-oxazolyl]-N-(3,5-dimethoxybenzyl)propionamide] gave a melting point of 198 to 200 °C.

The molecule `Cc1ccc(C)c(CNC(=O)CCc2oc(-n3cnc4ccccc43)nc2-c2ccc(Cl)cc2)c1` [Example 181, 3-[2-(1H-benzimidazol-1-yl)-4-(4-chlorophenyl)-5-oxazolyl]-N-(2,5-dimethylbenzyl)propionamide] registered a melting point of 218 to 219 °C.

Molecule `O=C(CCc1oc(-n2cnc3ccccc32)nc1-c1ccc(Cl)cc1)N1CCC(O)CC1` [Example 192, 1-{3-[2-(1H-benzimidazol-1-yl)-4-(4-chlorophenyl)-5-oxazolyl]propanoyl}-4-piperidinol] showed a melting point of 182 to 183 °C.

For the origin of these results see patent US7183276B2, “Azole compounds” (Takeda Pharmaceutical Company Limited, priority 2002, dated 2007).
